Here are results for eight molecules from patent publication EP0013784B1, “C-Substituted naphthalenemonosulfonic ureides, process for their preparation and pharmaceutical compositions containing them” (AMERICAN CYANAMID COMPANY, priority 1979, dated 1980).

Structures are written as SMILES. Values joined by “and” are separate entries in the source; they are usually repeats but may differ in a detail not shown here. Identical values can stand only once. Counter-ions that a name gives are not always drawn. Like-named read-outs stand apart in the source and are kept apart here.

Assay [1] deals with T1, human skin fibroblast collagenase (Homo sapiens, UniProt P03956).
T1 construct: endogenous in cells
T1 sequence (P03956 100-469): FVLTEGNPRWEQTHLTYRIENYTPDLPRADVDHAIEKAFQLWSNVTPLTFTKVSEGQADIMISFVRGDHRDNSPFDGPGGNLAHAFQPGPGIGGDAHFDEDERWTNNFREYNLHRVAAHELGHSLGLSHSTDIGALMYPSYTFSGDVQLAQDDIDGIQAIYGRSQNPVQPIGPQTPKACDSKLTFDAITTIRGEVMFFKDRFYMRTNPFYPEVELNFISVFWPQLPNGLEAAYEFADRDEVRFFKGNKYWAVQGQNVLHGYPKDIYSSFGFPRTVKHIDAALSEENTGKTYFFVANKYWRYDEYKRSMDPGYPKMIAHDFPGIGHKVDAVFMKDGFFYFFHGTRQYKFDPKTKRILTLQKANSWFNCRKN
The experiment in a line: Collagenase Assay, Test Code 006 (degradation of 14C-labeled native collagen fibrils). Conditions: test conc.: 30 μg./ml. The format is biochemical. On the procedure: (§1) An active inhibitor would inhibit the degradation of the collagen fibril; (iii) Leukocyte Neutral Proteases Inhibitor Assay - This test measures the ability of neutral proteases derived from human leukocytes to degrade radiolabeled proteoglycans entrapped in polyacrylamide beads.
Collagenase assays were performed by a modification of the method of Harper, et al., Biochem.,-10, 3035 (1971). In a typical assay (total volume of 0.45 ml.), 100 pI. of the activated enzyme was added to the ^14C-labeled collagen fibrils (250 µl.) followed by 100 pl. of 50 mM cacodylate, pH 7.4, containing 5 mM calcium chloride. After incubation at 37°C. for 16 hours, the tubes were centrifuged in a Beckman microfuge for five minutes at full speed. An aliquot (200 pl.) of the supernatant, representing collagenase digestion products of the fibril, was assayed for radioactivity. […] Appropriate blanks and trypsin controls were run in parallel.
The activities are expressed as % inhibition (lowering) of collagenase activity, i.e. based on the 0% value for the enzyme control.

Assay [2] relates to fibroblast collagenase and leukocyte neutral protease. The experiment in a line: Enzymatic Degradation of Collagen of Human Gingiva (hydroxyproline content of residual tissue). Conditions: 36 hours at 37°C., enzymes alone 102.3. The format is biochemical. On the procedure:
The test compounds are able to inhibit the degradation of collagen of gingival tissue. Dried pieces of human gingiva were incubated at 37°C. for 36 hours with fibroblast collagenase and leukocyte neutral protease in the presence of test compound (30 and 50 µg./ml.). Antibiotics were present to prevent bacterial growth. After incubation, the residual tissue was hydrolyzed in 6N hydrochloric acid and the hydroxy-proline content (collagen) was determined. When collagenase and neutral protease were added to human gingiva, approximately 100 µg of collagen/mg. dry tissue was digested. If the test compound was present, degradation of gingival collagen was inhibited.

In assay [3] the test system is neutral proteases derived from human leukocytes. Description: Leukocyte Neutral Proteases Inhibitor Assay (3H/35S labeled proteoglycans entrapped in polyacrylamide beads). Type of assay: biochemical. Conditions: for Percent Inhibition of Neutral Protease Activity ^3H: 3H label; for Percent Inhibition of Neutral Protease Activity ^35S: 35S label. On the procedure: as §1
This assay system contained (total volume of 1 ml.) 60 mM Tris-CI, pH 7.4; 2.5 mM calcium chloride; 2.5 mM magnesium chloride; 2 mg. (dry weight) of polyacrylamide beads entrapped with labeled proteoglycans, and an aliquot of the leukocyte neutral protease preparation. The reaction mixture was incubated at 37°C. for 30 minutes in a shaking water bath. The reaction was terminated by the addition of 0.2 mi. of 5% SDS in 5% HCI (v/v). After five minutes at room temperature the mixture was centrifuged and the clear supernatant (0.6 ml.) was assayed for radioactivity. To determine the effect of the test compounds on degradation of proteoglycans by neutral proteases, various concentrations of the compounds were added to the reaction mixture. Appropriate blanks were included.

Assay [4] has as its system Gingival Crevicular Fluid Collagenase. Description: Crevicular Fluid Assay (gingival crevicular fluid collagenase degrading 14C-collagen fibrils). Type of assay: biochemical, human. To be noted: Diseased crevicular fluid + 30 mcg./ml. of compound; about 90 hours at 37°C.; diseased fluid alone 66 ± 9; p<0.0005.
Text: as §1
Since studies by Golub, et al., Dental Res., 55, 1049 (1976) have shown that the crevicular collagenase plays a major role in the degradation of collagen in periodontal tissue, the effect of test compounds on collagen degradation by this system was examined. A volunteer with diagnosed periodontal disease was used. […] After one minute, the filter paper strip was removed and the volume of the gingival crevicular fluid was measured with the aid of the Periotron (Harco Electronics, Ltd., Winnipeg, Canada). The volume of the fluid gathered from the crevice by the filter paper strip is translated by a unique transducer onto a digital readout screen. […] After reading on the meter, 1 µl. of trypsin (1.5 µg./ml.) was added to the filter paper (to activate any latent collagenase present) and after five minutes at room temperature 1 pI. of aprotonin was added. […] The tubes were centrifuged as described above and a 200 µl. aliquot of the clear supernatant was assayed for radioactivity.

Assay [5] concerns collagenase. Conditions: as reported in Thromb. Res. 1977, 10(4), 605-11; cited from earlier work.
[6] abbreviates: compound in distilled water, 16 hours at 37°C., repeat determinations.
Where [7] appears, read: compound in distilled water, 16 hours at 37°C., repeat determinations, read-out: % Inhibition of Collagenase.
[8] abbreviates: DMA = Dimethylacetamide, read-out: % Inhibition of Collagenase (DMA).

For `O=C(Nc1cccc(C(=O)Nc2ccc(S(=O)(=O)O)c3cccc(O)c23)c1)Nc1cccc(C(=O)Nc2ccc(S(=O)(=O)O)c3cccc(O)c23)c1` [4,4'-[Ureylenebis(m-phenylenecarbonylimino)]bis-5-hydroxy-1-2-naphthalen,3sulfonic acid, disodium salt], the “% Inhibition of Collagenase” value in assay [1] (compound in distilled water, 16 hours at 37°C., repeat determinations, disodium salt) is 84% and 69% and 60% and 55%.

As to `O=C(Nc1cccc(C(=O)Nc2ccc3cc(S(=O)(=O)O)cc(O)c3c2)c1)Nc1cccc(C(=O)Nc2ccc3cc(S(=O)(=O)O)cc(O)c3c2)c1` [6,6'-[Ureylenebis(3,1-phenyl-enecarbonylimino)]bis[4-hydroxy] [6,6'-[Ureylenebis(m-phenylenecarbonylimino)]bis[4-hydroxy-2-naphthalenesulfonic acid]disodium salt], the “mcg. of Collagen degraded per mg. of dry gingiva” value in assay [2] (neutral proteases plus 30 mcg./ml. of compound) is given as 60.4 mcg. per mg. of dry gingiva; in assay [2] (neutral proteases plus 50 mcg./ml. of compound) it was 27.4 mcg. per mg. of dry gingiva. Also, the “Percent Inhibition of Neutral Protease Activity ^3H” value is 0% in assay [3] (0.5 mcg./ml.); 17% in assay [3] (1.0 mcg./ml.); 21% in assay [3] (2.0 mcg./ml.); 47% in assay [3] (5.0 mcg./ml.); 63% in assay [3] (10.0 mcg./ml.). The “Percent Inhibition of Neutral Protease Activity ^35S” value in assay [3] (0.5 mcg./ml.) is listed as 0%; in assay [3] (1.0 mcg./ml.), 31%; in assay [3] (2.0 mcg./ml.), 37%; in assay [3] (5.0 mcg./ml.) it was 74%; in assay [3] (10.0 mcg./ml.) it was 91%. For the same molecule, in assay [1] (setting [6]), the “% Inhibition of Collagenase” value was 92% and 69%. In addition, in assay [4], the “cpm Collagen Degraded/Unit Periotron Reading” value was 16 ± 6 cpm.

As usually defined, the inhibition is the change of the read-out against control, counted positive when it falls. Turning to `Cc1ccc(C(=O)Nc2ccc3cc(S(=O)(=O)O)cc(O)c3c2)cc1NC(=O)Nc1cc(C(=O)Nc2ccc3cc(S(=O)(=O)O)cc(O)c3c2)ccc1C` [6,6'-[Ureylenebis(4-methyl-3,1-phenylene)carbonyliminolbis[4-hydroxy-2-naphthalenesulfonic acid]-disodium salt], in assay [1] (setting [7]), the inhibition at 30 µg/mL amounted to 73%.

On to `O=C(Nc1cccc(C(=O)Nc2ccc3cc(S(=O)(=O)O)cc(O)c3c2)c1)Nc1cccc(C(=O)Nc2ccc3cc(S(=O)(=O)O)cc(O)c3c2)c1` [6,6'-[Ureylenebis(m-phenylenecarbonylimino)]bis[4-hydroxy-2-naphthalenesulfonic acid]disodium salt], for which, in assay [1] (setting [8]), the inhibition at 30 µg/mL came out at 81%.

Take `O=C(Nc1ccc(C(=O)Nc2ccc3cc(S(=O)(=O)O)cc(O)c3c2)cc1)Nc1ccc(C(=O)Nc2ccc3cc(S(=O)(=O)O)cc(O)c3c2)cc1` [6,6'-[Ureylenebis(p-phenylenecarbonylimino)]bis[4-hydroxy-2-naphthalenesulfonic acid acid], disodium salt]: the values for the inhibition at 30 µg/mL in assay [1] (setting [8]) and in assay [1] (setting [7]) were 96% and 86%, respectively.

On to `O=C(Nc1ccc(C(=O)Nc2ccc3cc(S(=O)(=O)O)cc(O)c3c2)cc1)Nc1ccc(C(=O)Nc2ccc3cc(S(=O)(=O)O)cc(O)c3c2)cc1` [6,6-'Ureylenebis(p-phenylenecarbonylimino)bis[4-hydroxy-2-naphthalenesulfonic acid]-tetrasodium salt], for which, in assay [1] (setting [6]), the “% Inhibition of Collagenase” value worked out at 92%.

For the molecule `Cc1ccc(C(=O)Nc2ccc(S(=O)(=O)O)c3cc(S(=O)(=O)O)cc(S(=O)(=O)O)c23)cc1NC(=O)c1cccc(NC(=O)Nc2cccc(C(=O)Nc3cc(C(=O)Nc4ccc(S(=O)(=O)O)c5cc(S(=O)(=O)O)cc(S(=O)(=O)O)c45)ccc3C)c2)c1` [Suramin], the “inhibition of the activity of collagenase” value in assay [5] is “not inhibiting the action of collagenase”.

As to `Cc1cc(-c2ccc(/N=N/c3c(S(=O)(=O)O)cc4cc(S(=O)(=O)O)cc(N)c4c3O)c(C)c2)ccc1/N=N/c1c(S(=O)(=O)O)cc2cc(S(=O)(=O)O)cc(N)c2c1O` [trypan blue], the “inhibition of the activity of collagenase” value in assay [5] is recorded as “inhibiting the activity of collagenase, or a proteinase contaminant in the collagenase preparation”.
